Holding throughout (assay type): cell-based
One assay deals with K. pneumoniae MP-546. The assay is described as follows: MIC determination by CLSI broth dilution, K. pneumoniae MP-546. The conditions noted are these: Klebsiella pneumoniae, MP546, CLSI broth dilution; strain MP-546.
Another assay concerns A. baumannii MP-15. The assay is described as follows: MIC determination by CLSI broth dilution, A. baumannii MP-15. The conditions noted are these: Acinetobacter baumannii, MP15, strain MP-15, read-out: MIC A. baumanii MP-15. (In general: In broth dilution the organism is exposed to a series of concentrations in liquid medium.)
Another assay concerns P. aeruginosa MP-3. Briefly: MIC determination by CLSI broth dilution, P. aeruginosa MP-3. Particulars: Pseudomonas aeruginosa, MP3, strain MP-3.
The subject of the next assay is S. aureus MP-12. Briefly: microbe, parasite or virus in culture. The conditions noted are these: Staphylococcus aureus, MP12, read-out: MIC S. aureus MP-12.
For the next assay, the system named is E. coli MP-4. Briefly: MIC determination by CLSI broth dilution, E. coli MP-4. The conditions noted are these: Escherichia coli, MP4, CLSI broth dilution; strain MP-4.

Each structure is given as a SMILES string. Converted amounts (≈) assume the structure as drawn.

`CO[C@]1(C)C[C@@H](C)CN(C)[C@@H](CN(C)C(=O)CN(C)C)COC(=O)C(C)(C)C(=O)[C@H](C)[C@H]1O[C@@H]1O[C@H](C)C[C@H](N(C)C)[C@H]1O` [Compound 13, 2-(dimethylamino)-N-(((3S,6R,8R,9R,10R)-9-(((2S,3R,4S,6R)-4-(dimethylamino)-3-hydroxy-6-methyltetrahydro-2H-pyran-2-yl)oxy)-8-methoxy-4,6,8,10,12,12-hexamethyl-11,13-dioxo-1-oxa-4-azacyclotridecan-3-yl)methyl)-N-methylacetamide]: the MIC in the assay on K. pneumoniae MP-546 was 4 to 32 µg/mL (≈ 6.36 to 50.9 µM); with A. baumannii MP-15, over 32 µg/mL; in the assay with P. aeruginosa MP-3, over 32 µg/mL; in the assay with S. aureus MP-12, over 32 µg/mL; against E. coli MP-4, 4 to 32 µg/mL (≈ 6.36 to 50.9 µM).
`CO[C@]1(C)C[C@@H](C)CN(C)[C@@H](CC2CCN(CC[C@@H](C)CCC=C(C)C)CC2)COC(=O)C(C)(C)C(=O)[C@H](C)[C@H]1O[C@@H]1O[C@H](C)C[C@H](N(C)C)[C@H]1O` [Compound 71]: the MIC is over 32 µg/mL in the assay on K. pneumoniae MP-546; over 32 µg/mL in the assay on A. baumannii MP-15; over 32 µg/mL with P. aeruginosa MP-3; over 32 µg/mL in the assay on S. aureus MP-12; 4 to 32 µg/mL (≈ 5.43 to 43.5 µM) against E. coli MP-4.
Regarding `CNC[C@H]1COC(=O)C(C)(C)C(=O)[C@H](C)[C@@H](O[C@@H]2O[C@H](C)C[C@H](N(C)C)[C@H]2O)[C@](C)(OC)C[C@@H](C)CN1` [Compound 15, (3S,6R,8R,9R,10R)-9-(((2S,3R,4S,6R)-4-(Dimethylamino)-3-hydroxy-6-methyltetrahydro-2H-pyran-2-yl)oxy)-8-methoxy-6,8,10,12,12-pentamethyl-3-((methylamino)methyl)-1-oxa-4-azacyclotridecane-11,13-dione], the MIC with K. pneumoniae MP-546 was over 32 µg/mL; in the assay on A. baumannii MP-15, over 32 µg/mL; with P. aeruginosa MP-3, over 32 µg/mL; with S. aureus MP-12 it was over 32 µg/mL; in the assay on E. coli MP-4 it was 4 to 32 µg/mL (≈ 7.55 to 60.4 µM).
As to `CO[C@]1(C)C[C@@H](C)CN(C)[C@H](CC2CCN(CC(C)(C)C)CC2)COC(=O)C(C)(C)C(=O)[C@H](C)[C@H]1O[C@@H]1O[C@H](C)C[C@H](N(C)C)[C@H]1O` [Compound 54], the MIC was under 4 µg/mL against K. pneumoniae MP-546; over 32 µg/mL in the assay with A. baumannii MP-15; over 32 µg/mL with P. aeruginosa MP-3; 4 to 32 µg/mL (≈ 5.99 to 47.9 µM) in the assay on S. aureus MP-12; under 4 µg/mL in the assay with E. coli MP-4.
For `CCC(=O)N1CCN(C[C@H]2[C@H](C)OC(=O)C(C)(C)C(=O)[C@H](C)[C@@H](O[C@@H]3O[C@H](C)C[C@H](N(C)C)[C@H]3O)[C@](C)(OC)C[C@@H](C)CN2C)CC1` [Compound 133, (2S,3S,6R,8R,9R,10R)-9-(((2S,3R,4S,6R)-4-(dimethylamino)-3-hydroxy-6-methyltetrahydro-2H-pyran-2-yl)oxy)-8-methoxy-2,4,6,8,10,12,12-heptamethyl-3-((4-propionylpiperazin-1-yl)methyl)-1-oxa-4-azacyclotridecane-11,13-dione], the MIC in the assay on K. pneumoniae MP-546 is over 32 µg/mL; in the assay on A. baumannii MP-15 it was over 32 µg/mL; with P. aeruginosa MP-3 it was over 32 µg/mL; with S. aureus MP-12 it was 4 to 32 µg/mL (≈ 5.98 to 47.8 µM); with E. coli MP-4, over 32 µg/mL.
In the case of `CO[C@]1(C)C[C@@H](C)CN(C)[C@@H](CC2CCN(CC(C)C)CC2)COC(=O)C(C)(C)C(=O)[C@H](C)[C@H]1O[C@@H]1O[C@H](C)C[C@H](N(C)C)[C@H]1O` [Compound 67], the MIC with K. pneumoniae MP-546 is 4 to 32 µg/mL (≈ 6.12 to 48.9 µM); in the assay on A. baumannii MP-15, over 32 µg/mL; against P. aeruginosa MP-3 it was over 32 µg/mL; with S. aureus MP-12, over 32 µg/mL; in the assay on E. coli MP-4, 4 to 32 µg/mL (≈ 6.12 to 48.9 µM).
`CO[C@]1(C)C[C@@H](C)CN(C)[C@@H](CN2CCN(S(=O)(=O)c3cn(C)cn3)CC2)[C@H](C)OC(=O)C(C)(C)C(=O)[C@H](C)[C@H]1O[C@@H]1O[C@H](C)C[C@H](N(C)C)[C@H]1O` [Compound 81, (2S,3S,6R,8R,9R,10R)-9-(((2S,3R,4S,6R)-4-(dimethylamino)-3-hydroxy-6-methyltetrahydro-2H-pyran-2-yl)oxy)-8-methoxy-2,4,6,8,10,12,12-heptamethyl-3-((4-((1-methyl-1H-imidazol-4-yl)sulfonyl)piperazin-1-yl)methyl)-1-oxa-4-azacyclotridecane-11,13-dione]: the MIC against K. pneumoniae MP-546 was over 32 µg/mL; in the assay with A. baumannii MP-15 it was over 32 µg/mL; against P. aeruginosa MP-3, over 32 µg/mL; in the assay on S. aureus MP-12, 4 to 32 µg/mL (≈ 5.28 to 42.3 µM); in the assay with E. coli MP-4, over 32 µg/mL.
`CO[C@]1(C)C[C@@H](C)CN(C)[C@@H](CC2CCN(C(=O)C3CC3)CC2)COC(=O)C(C)(C)C(=O)[C@H](C)[C@H]1O[C@@H]1O[C@H](C)C[C@H](N(C)C)[C@H]1O` [Compound 44]: the MIC was over 32 µg/mL in the assay on K. pneumoniae MP-546; over 32 µg/mL in the assay with A. baumannii MP-15; over 32 µg/mL in the assay with P. aeruginosa MP-3; 4 to 32 µg/mL (≈ 6.01 to 48.1 µM) with S. aureus MP-12; over 32 µg/mL with E. coli MP-4.
As for `CO[C@]1(C)C[C@@H](C)CN(C)[C@H](CC2CCN(C(=O)C3CC3)CC2)COC(=O)C(C)(C)C(=O)[C@H](C)[C@H]1O[C@@H]1O[C@H](C)C[C@H](N(C)C)[C@H]1O` [Compound 45], the MIC with K. pneumoniae MP-546 is 4 to 32 µg/mL (≈ 6.01 to 48.1 µM); in the assay with A. baumannii MP-15 it was over 32 µg/mL; against P. aeruginosa MP-3, over 32 µg/mL; in the assay with S. aureus MP-12 it was 4 to 32 µg/mL (≈ 6.01 to 48.1 µM); with E. coli MP-4 it was 4 to 32 µg/mL (≈ 6.01 to 48.1 µM).
As for `CO[C@]1(C)C[C@@H](C)CN(C)[C@H](CC2CCN(C)CC2)[C@@H](C)OC(=O)C(C)(C)C(=O)[C@H](C)[C@H]1O[C@@H]1O[C@H](C)C[C@H](N(C)C)[C@H]1O` [Compound 49], the MIC in the assay on K. pneumoniae MP-546 was 4 to 32 µg/mL (≈ 6.39 to 51.1 µM); with A. baumannii MP-15 it was over 32 µg/mL; in the assay on P. aeruginosa MP-3, over 32 µg/mL; in the assay with S. aureus MP-12, over 32 µg/mL; in the assay on E. coli MP-4, under 4 µg/mL.
As for `CO[C@]1(C)C[C@@H](C)CN(C)[C@H](CC2CCN(CC(C)(C)C)CC2)C(C)(C)OC(=O)C(C)(C)C(=O)[C@H](C)[C@H]1O[C@@H]1O[C@H](C)C[C@H](N(C)C)[C@H]1O` [Compound 36], the MIC was 4 to 32 µg/mL (≈ 5.75 to 46 µM) against K. pneumoniae MP-546; 4 to 32 µg/mL (≈ 5.75 to 46 µM) with A. baumannii MP-15; over 32 µg/mL against P. aeruginosa MP-3; 4 to 32 µg/mL (≈ 5.75 to 46 µM) with S. aureus MP-12; under 4 µg/mL against E. coli MP-4.
For `CO[C@]1(C)C[C@@H](C)CN(C)[C@@H](CCCNC(C)C)COC(=O)C(C)(C)C(=O)[C@H](C)[C@H]1O[C@@H]1O[C@H](C)C[C@H](N(C)C)[C@H]1O` [Compound 16, (3S,6R,8R,9R,10R)-9-(((2S,3R,4S,6R)-4-(dimethylamino)-3-hydroxy-6-methyltetrahydro-2H-pyran-2-yl)oxy)-3-(3-(isopropylamino)propyl)-8-methoxy-4,6,8,10,12,12-hexamethyl-1-oxa-4-azacyclotridecane-11,13-dione], the MIC with K. pneumoniae MP-546 was 4 to 32 µg/mL (≈ 6.67 to 53.3 µM); with A. baumannii MP-15, over 32 µg/mL; in the assay with P. aeruginosa MP-3, over 32 µg/mL; with S. aureus MP-12, 4 to 32 µg/mL (≈ 6.67 to 53.3 µM); in the assay on E. coli MP-4 it was under 4 µg/mL.
In the case of `CO[C@]1(C)C[C@@H](C)CN[C@@H](CN(C)C)COC(=O)C(C)(C)C(=O)[C@H](C)[C@H]1O[C@@H]1O[C@H](C)C[C@H](N(C)C)[C@H]1O` [Compound 17, (3S,6R,8R,9R,10R)-9-(((2S,3R,4S,6R)-4-(dimethylamino)-3-hydroxy-6-methyltetrahydro-2H-pyran-2-yl)oxy)-3-((dimethylamino)methyl)-8-methoxy-6,8,10,12,12-pentamethyl-1-oxa-4-azacyclotridecane-11,13-dione], the MIC in the assay on K. pneumoniae MP-546, in the assay with A. baumannii MP-15, in the assay on P. aeruginosa MP-3, in the assay with S. aureus MP-12 and against E. coli MP-4 was over 32 µg/mL throughout.
Take `CO[C@]1(C)C[C@@H](C)CN(C)[C@@H](CN2CCN(C(=O)C(F)(F)F)CC2)[C@H](C)OC(=O)C(C)(C)C(=O)[C@H](C)[C@H]1O[C@@H]1O[C@H](C)C[C@H](N(C)C)[C@H]1O` [Compound 109, (2S,3S,6R,8R,9R,10R)-9-(((2S,3R,4S,6R)-4-(dimethylamino)-3-hydroxy-6-methyltetrahydro-2H-pyran-2-yl)oxy)-8-methoxy-2,4,6,8,10,12,12-heptamethyl-3-((4-(2,2,2-trifluoroacetyl)piperazin-1-yl)methyl)-1-oxa-4-azacyclotridecane-11,13-dione]: the MIC against K. pneumoniae MP-546 was over 32 µg/mL; in the assay with A. baumannii MP-15 it was over 32 µg/mL; in the assay on P. aeruginosa MP-3, over 32 µg/mL; in the assay with S. aureus MP-12 it was 4 to 32 µg/mL (≈ 5.64 to 45.1 µM); in the assay on E. coli MP-4 it was 4 to 32 µg/mL (≈ 5.64 to 45.1 µM).
As for `CO[C@]1(C)C[C@@H](C)CN(C)[C@@H](C(=O)N2CCNCC2)[C@H](C)OC(=O)C(C)(C)C(=O)[C@H](C)[C@H]1O[C@@H]1O[C@H](C)C[C@H](N(C)C)[C@H]1O` [Compound 136, (2S,3R,6R,8R,9R,10R)-9-(((2S,3R,4S,6R)-4-(dimethylamino)-3-hydroxy-6-methyltetrahydro-2H-pyran-2-yl)oxy)-8-methoxy-2,4,6,8,10,12,12-heptamethyl-3-(piperazine-1-carbonyl)-1-oxa-4-azacyclotridecane-11,13-dione], the MIC in the assay on K. pneumoniae MP-546, in the assay on A. baumannii MP-15, in the assay on P. aeruginosa MP-3, with S. aureus MP-12 and in the assay with E. coli MP-4 was over 32 µg/mL each time.
On to `CCN(C)CCC[C@H]1COC(=O)C(C)(C)C(=O)[C@H](C)[C@@H](O[C@@H]2O[C@H](C)C[C@H](N(C)C)[C@H]2O)[C@](C)(OC)C[C@@H](C)CN1C` [Compound 20, (3S,6R,8R,9R,10R)-9-(((2S,3R,4S,6R)-4-(dimethylamino)-3-hydroxy-6-methyltetrahydro-2H-pyran-2-yl)oxy)-3-(3-(ethyl(methyl)amino)propyl)-8-methoxy-4,6,8,10,12,12-hexamethyl-1-oxa-4-azacyclotridecane-11,13-dione], for which the MIC is under 4 µg/mL with K. pneumoniae MP-546; over 32 µg/mL in the assay on A. baumannii MP-15; over 32 µg/mL in the assay with P. aeruginosa MP-3; 4 to 32 µg/mL (≈ 6.67 to 53.3 µM) in the assay with S. aureus MP-12; under 4 µg/mL against E. coli MP-4.

The values are drawn from patent publication US12552825B2 (Zikani Therapeutics, Inc., priority 2019, dated 2026).
